Assay results reported in PMC11363325, “A Novel Prodrug Strategy Based on Reversibly Degradable Guanidine Imides for High Oral Bioavailability and Prolonged Pharmacokinetics of Broad-Spectrum Anti-influenza Agents” (ACS Central Science, 2024).
Structures can show the parent of a compound that is named as a salt.

What was measured:
[1] = system: rgA/Korea/09/2009Δ53–60 with the H275Y mutation in NA (rgKR09)
[2] = system: rgPR8(H275Y), A/Puerto Rico/8/1934 with the H275Y mutation in NA
[3] = system: A/Korea/2785/2009 (H1N1) with the H275Y mutation in NA (KR2785)
[4] = system: rgA/Korea/09/2009Δ53–60(H275Y), A/H1N1(H275Y); parameters: species or system BALB/c mice; details: mouse, in vivo, po, 10 mg/kg

Row | SMILES | EC50 [1] | EC50 [2] | resistance factor (RF), ratio of EC50 against rgPR8(H275Y) to wild-type rgPR8 [2] | EC50 [3] | survival rate [4]
1 | CCC(CC)O[C@@H]1C=C(C(=O)O)C[C@H](N)[C@H]1NC(C)=O [OSC, oseltamivir carboxylate, reference compound] | 25.9 ± 0.65 µM | 13.7 ± 2.7 µM | 274 | 56.61 ± 0.3 µM | –
2 | CCC(CC)O[C@@H]1C=C(C(=O)O)C[C@H](N=C(N2C(=O)CC(C)(C)C2=O)N2C(=O)CC(C)(C)C2=O)[C@H]1NC(C)=O [OSC-GCDI(D)] | 4.37 ± 1.1 µM | 1.52 ± 0.2 µM | – | 9.25 ± 2.4 µM | –
3 | NC12CC3CC(CC(C3)C1)C2 [AMT, Amantadine, reference compound] | > 100 µM | > 100 µM | – | > 100 µM | –
4 | CCC(CC)O[C@@H]1C=C(C(=O)O)C[C@H](NC(=N)N)[C@H]1NC(C)=O [GOC, guanidino oseltamivir carboxylate, reference compound] | 0.11 ± 0.01 µM | 0.09 ± 0.01 µM | 18.0 | 0.78 ± 0.01 µM | –
5 | CCC(CC)O[C@@H]1C=C(C(=O)O)C[C@H](N=C(N2C(=O)CCC2=O)N2C(=O)CCC2=O)[C@H]1NC(C)=O [OSC-GCDI(S)] | 2.2 ± 0.1 µM | 0.99 ± 0.01 µM | – | 8.55 ± 2.15 µM | –
6 | NC(=O)c1ncn([C@@H]2O[C@H](CO)[C@@H](O)[C@H]2O)n1 [RBV, Ribavirin, reference compound] | 15.79 ± 0.15 µM | 16.4 ± 0.45 µM | – | 18.3 ± 1.3 µM | –
7 | CCC(CC)O[C@@H]1C=C(C(=O)O)C[C@H](N=C(N2C(=O)[C@H]3CC=CC[C@H]3C2=O)N2C(=O)[C@H]3CC=CC[C@H]3C2=O)[C@H]1NC(C)=O [OSC-GCDI(Ce)] | 5.21 ± 0.02 µM | 1.9 ± 0.1 µM | – | 13.22 ± 0.1 µM | –
8 | CCC(CC)O[C@@H]1C=C(C(=O)O)C[C@H](N=C(N2C(=O)CC(C)C2=O)N2C(=O)CC(C)C2=O)[C@H]1NC(C)=O (stereo partly drawn) [OSC-GCDI(M)] | 1.96 ± 0.15 µM | 0.74 ± 0.05 µM | – | 4.61 ± 0.35 µM | –
9 | CCC(CC)O[C@@H]1C=C(C(=O)O)C[C@H](NC(=N)N)[C@H]1NC(C)=O [GOC·TFA, guanidino oseltamivir carboxylate] | – | – | – | – | all mice were eventually dead
10 | CCC(CC)O[C@@H]1C=C(C(=O)O)C[C@H](N=C(N2C(=O)[C@H]3CCCC[C@H]3C2=O)N2C(=O)[C@H]3CCCC[C@H]3C2=O)[C@H]1NC(C)=O [OSC-GCDI(C)] | 3.7 ± 0.5 µM | 0.49 ± 0.01 µM | – | 5.91 ± 0.85 µM | –
11 | CCC(CC)O[C@@H]1C=C(C(=O)O)C[C@H](N=C(N2C(=O)c3ccccc3C2=O)N2C(=O)c3ccccc3C2=O)[C@H]1NC(C)=O [OSC-GCDI(P)] | 4.61 ± 0.05 µM | 0.48 ± 0.01 µM | – | 4.61 ± 0.35 µM | –
12 | CCC(CC)O[C@@H]1C=C(C(=O)O)C[C@H](N=C(N2C(=O)C3CCC(C)CC3C2=O)N2C(=O)C3CCC(C)CC3C2=O)[C@H]1NC(C)=O (stereo partly drawn) [OSC-GCDI(CM)] | 4.43 ± 0.25 µM | 1.2 ± 0.05 µM | – | 14 ± 5.15 µM | –
13 | CCCCC1CC(=O)N(C(=N[C@H]2CC(C(=O)O)=C[C@@H](OC(CC)CC)[C@@H]2NC(C)=O)N2C(=O)CC(CCCC)C2=O)C1=O (stereo partly drawn) [OSC-GCDI(B)] | 12.9 ± 0.65 µM | 3.41 ± 0.01 µM | – | 17.6 ± 2.9 µM | –
